Assay results from patent publication US6737383B1, “Herbicidal oxadiazolidines” (priority 1999, dated 2004).

Key:
velvetleaf = experiment: Test A velvetleaf; format: in vivo, Abutilon theophrasti; settings: 0 to 10 scale where 0 is no effect and 10 is complete control
Method: (§1) Seeds of barnyardgrass (Echinochloa crus-galli), crabgrass (Digitaria spp.), morningglory (Ipomoea spp.), and velvetleaf (Abutilon theophrasti) were planted into a sandy loam soil and treated preemergence by soil drench with test chemicals formulated in a non-phytotoxic solvent mixture which includes a surfactant At the same time, these crop and weed species were also treated postemergence sprayed to runoff, with test chemicals formulated in the same manner.
(§2) Plants ranged in height from two to eighteen cm and were in the one to two leaf stage for the postemergence treatment. Treated plants and untreated controls were maintained in a greenhouse for approximately eleven days, after which all treated plants were compared to untreated controls and visually evaluated for injury. Plant response ratings, summarized in Table A, are based on a 0 to 10 scale where 0 is no effect and 10 is complete control.

morningglory = experiment: Test A morningglory; format: in vivo, Ipomoea spp.; settings: 0 to 10 scale where 0 is no effect and 10 is complete control
Method: as §1, §2

barnyardgrass [1] = experiment: Test A barnyardgrass; format: in vivo, Echinochloa crus-galli; settings: 0 to 10 scale where 0 is no effect and 10 is complete control
Method: as §1, §2

hairy beggarticks = experiment: Test C postemergence hairy beggarticks; format: in vivo, Bidens pilosa; settings: 0 to 100 scale, 0 no effect, 100 complete control
Method in brief: (§3)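 Compounds in a non-phytotoxic solvent mixture with surfactant were sprayed postemergence on greenhouse-grown plants sized for treatment, in 60:40 sandy loam soil:potting mix. After about 14 to 21 days, injury was rated visually against untreated controls on a 0–100 scale (0 no effect, 100 complete control).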

corn = experiment: Test C postemergence corn; format: in vivo, Zea mays; settings: 0 to 100 scale, 0 no effect, 100 complete control
Method in brief: as §3

lambsquarters = experiment: Test C postemergence lambsquarters; format: in vivo, Chenopodium album; settings: 0 to 100 scale, 0 no effect, 100 complete control
Method in brief: as §3

fall panicum = experiment: Test C postemergence fall panicum; format: in vivo, Panicum dichotomiflorum; settings: 0 to 100 scale, 0 no effect, 100 complete control
Method in brief: as §3

barnyardgrass [2] = experiment: Test C postemergence barnyardgrass; format: in vivo, Echinochloa crus-galli; settings: 0 to 100 scale, 0 no effect, 100 complete control
Method: Compounds evaluated in this test were formulated in a non-phytotoxic solvent mixture which included a surfactant and applied to plants that were grown for various periods of time before treatment (postemergence application). A mixture of sandy loam soil and greenhouse potting mix in a 60:40 ratio was used for the postemergence test.
Plantings of these crops and weed species were adjusted to produce plants of appropriate size for the postemergence test. All plant species were grown using normal greenhouse practices. Crop and weed species include arrowleaf sida (Sida rhombifolia), barnyardgrass (Echinochloa crus-galli), cocklebur (Xanthium strumarium), common ragweed (Ambrosia elatior), corn (Zea mays), cotton (Gossypium hirsutum), eastern black nightshade (Solanum ptycanthum), fall panicum (Panicum dichotomiflorum), field bindweed (Convolvulus arvensis), giant foxtail (Setaria faberii), hairy beggarticks (Bidens pilosa), ivyleaf morningglory (Ipomoea hederacea), johnsongrass (Sorghum halepense), ladysthumb smartweed (Polygonum persicaria), lambsquarters (Chenopodium album), large crabgrass (Digitaria sanguinalis), purple nutsedge (Cyperus rotundus), redroot pigweed (Amaranthus retroflexus), soybean (Glycine max), surinam grass (Brachiaria decumbens), velvetleaf (Abutilon theophrasti) and wild poinsettia (Euphorbia heterophylla).
Treated plants and untreated controls were maintained in a greenhouse for approximately 14, to 21 days, after which all treated plants were compared to untreated controls and visually evaluated. Plant response ratings, summarized in Table C, were based upon a 0 to 100 scale where 0 was no effect and 100 was complete control. A dash response (−) means no test result.

ivyleaf morningglory = experiment: Test C postemergence ivyleaf morningglory; format: in vivo, Ipomoea hederacea; settings: 0 to 100 scale, 0 no effect, 100 complete control
Method in brief: as §3

field bindweed = experiment: Test C postemergence field bindweed; format: in vivo, Convolvulus arvensis; settings: 0 to 100 scale, 0 no effect, 100 complete control
Method in brief: as §3

Spanishneedles = experiment: Test D Spanishneedles; format: in vivo, Bidens bipinnata; settings: Rate 64 g/ha, Postemergence; 0 to 100 scale, 0 no injury, 100 complete control
purple nutsedge = experiment: Test D purple nutsedge; format: in vivo, Cyperus rotundus; settings: Rate 64 g/ha, Postemergence; 0 to 100 scale, 0 no injury, 100 complete control
common ragweed = experiment: Test D common ragweed; format: in vivo, Ambrosia elatior; settings: Rate 64 g/ha, Postemergence; 0 to 100 scale, 0 no injury, 100 complete control
Johnson grass = experiment: Test D Johnson grass; format: in vivo, Sorghum halepense; settings: Rate 64 g/ha, Postemergence; 0 to 100 scale, 0 no injury, 100 complete control
pitted morningglory = experiment: Test D pitted morningglory; format: in vivo, Ipomoea lacunosa; settings: Rate 64 g/ha, Postemergence; 0 to 100 scale, 0 no injury, 100 complete control
sandbur = experiment: Test D sandbur; format: in vivo, Cenchrus echinatus; settings: Rate 64 g/ha, Postemergence; 0 to 100 scale, 0 no injury, 100 complete control
bermuda-grass = experiment: Test D bermudagrass; format: in vivo, Cynodon dactylon; settings: Rate 64 g/ha, Postemergence; 0 to 100 scale, 0 no injury, 100 complete control
dallisgrass = experiment: Test D dallisgrass; format: in vivo, Paspalum dilatatum; settings: Rate 64 g/ha, Postemergence; 0 to 100 scale, 0 no injury, 100 complete control
Green foxtail = experiment: Test D green foxtail; format: in vivo; settings: Rate 64 g/ha, Postemergence; 0 to 100 scale, 0 no injury, 100 complete control

SMILES | Plant response rating, Velvetleaf (velvetleaf; Postemergence, Rate 1000 g/ha) | Plant response rating, Velvetleaf (velvetleaf; Pre-emergence, Rate 2000 g/ha) | Plant response rating, Morningglory (morningglory; Postemergence, Rate 1000 g/ha) | Plant response rating, Morningglory (morningglory; Pre-emergence, Rate 2000 g/ha) | Plant response rating, Barnyardgrass (barnyardgrass [1]; Postemergence, Rate 1000 g/ha) | Plant response rating, Barnyardgrass (barnyardgrass [1]; Pre-emergence, Rate 2000 g/ha) | Plant response rating H. beggarticks (hairy beggarticks; Rate 560 g/ha) | Plant response rating H. beggarticks (hairy beggarticks; Rate 1120 g/ha) | Plant response rating, Corn (corn; Rate 140 g/ha) | Plant response rating, Corn (corn; Rate 280 g/ha) | Plant response rating, Corn (corn; Rate 560 g/ha) | Plant response rating, Corn (corn; Rate 1120 g/ha) | Plant response rating, Lambsquarters (lambsquarters; Rate 140 g/ha) | Plant response rating, Lambsquarters (lambsquarters; Rate 280 g/ha) | Plant response rating, Lambsquarters (lambsquarters; Rate 560 g/ha) | Plant response rating, Lambsquarters (lambsquarters; Rate 1120 g/ha) | Plant response rating Fall panicum (fall panicum; Rate 140 g/ha) | Plant response rating Fall panicum (fall panicum; Rate 280 g/ha) | Plant response rating Fall panicum (fall panicum; Rate 560 g/ha) | Plant response rating Fall panicum (fall panicum; Rate 1120 g/ha) | other results
Cc1ccccc1-n1c(=O)on(C(=O)N(C2=CCOCC2)C(C)C)c1=O [Compound 10] | 4 | 2 | 0 | 1 | 9 | 10 |  |  |  |  |  |  |  |  |  |  |  |  |  |  | 
C=CCn1c(=O)on(C(=O)N(c2ccccc2)C(C)C)c1=O [Compound 93] |  |  |  |  |  |  | 5 | 70 | 0 | 0 | 0 | 45 | 10 | 10 | 10 | 40 | 0 | 80 | 90 | 90 | Plant response rating H. beggarticks (hairy beggarticks; Rate 280 g/ha): 0; Plant response rating, Barnyardgrass (barnyardgrass [2]; Rate 140 g/ha): 70; Plant response rating, Barnyardgrass (barnyardgrass [2]; Rate 280 g/ha): 90; Plant response rating, Barnyardgrass (barnyardgrass [2]; Rate 560 g/ha): 90; Plant response rating, Barnyardgrass (barnyardgrass [2]; Rate 1120 g/ha): 95; Plant response rating I. morningglory (ivyleaf morningglory; Rate 140 g/ha): 5; Plant response rating I. morningglory (ivyleaf morningglory; Rate 280 g/ha): 10; Plant response rating I. morningglory (ivyleaf morningglory; Rate 560 g/ha): 10; Plant response rating I. morningglory (ivyleaf morningglory; Rate 1120 g/ha): 70; Plant response rating Field bindweed (field bindweed; Rate 140 g/ha): 0; Plant response rating Field bindweed (field bindweed; Rate 280 g/ha): 0; Plant response rating Field bindweed (field bindweed; Rate 560 g/ha): 0; Plant response rating Field bindweed (field bindweed; Rate 1120 g/ha): 50
CC(C)N(C(=O)n1oc(=O)n(C2CCCCC2C(F)(F)F)c1=O)c1ccc(F)cc1 (stereo not shown) [Compound 99] | 2 | 3 | 2 | 2 | 7 | 9 |  |  |  |  |  |  |  |  |  |  |  |  |  |  | 
CCN(CC)C(=O)n1oc(=O)n(-c2ccc(OC)cc2)c1=O [Compound 1] | 0 | 0 | 0 | 0 | 8 | 9 |  |  |  |  |  |  |  |  |  |  |  |  |  |  | 
CC(C)N(C(=O)n1oc(=O)n(Cc2cccs2)c1=O)c1ccccc1 [Compound 103] |  |  |  |  |  |  | 0 | 5 | 0 | 0 | 0 | 0 | 0 | 5 | 5 | 20 | 0 | 0 | 0 | 30 | Plant response rating H. beggarticks (hairy beggarticks; Rate 140 g/ha): 0; Plant response rating H. beggarticks (hairy beggarticks; Rate 280 g/ha): 0; Plant response rating, Barnyardgrass (barnyardgrass [2]; Rate 140 g/ha): 0; Plant response rating, Barnyardgrass (barnyardgrass [2]; Rate 280 g/ha): 0; Plant response rating, Barnyardgrass (barnyardgrass [2]; Rate 560 g/ha): 10; Plant response rating, Barnyardgrass (barnyardgrass [2]; Rate 1120 g/ha): 80; Plant response rating I. morningglory (ivyleaf morningglory; Rate 140 g/ha): 0; Plant response rating I. morningglory (ivyleaf morningglory; Rate 280 g/ha): 0; Plant response rating I. morningglory (ivyleaf morningglory; Rate 560 g/ha): 0; Plant response rating I. morningglory (ivyleaf morningglory; Rate 1120 g/ha): 10; Plant response rating Field bindweed (field bindweed; Rate 140 g/ha): 0; Plant response rating Field bindweed (field bindweed; Rate 280 g/ha): 0; Plant response rating Field bindweed (field bindweed; Rate 560 g/ha): 0; Plant response rating Field bindweed (field bindweed; Rate 1120 g/ha): 0
CC(C)Oc1cc(-n2c(=O)on(C(=O)N(c3ccc(F)cc3)C(C)C)c2=O)c(Cl)cc1Cl [Compound 43] | 0 | 0 | 0 | 0 | 0 | 0 |  |  |  |  |  |  |  |  |  |  |  |  |  |  | 
CC(C)Cn1c(=O)on(C(=O)N(c2ccc(F)cc2)C(C)C)c1=O [Compound 169] |  |  |  |  |  |  |  |  |  |  |  |  |  |  |  |  |  |  |  |  | Spanishneedles plant response rating (Spanishneedles): 0; Purple nutsedge plant response rating (purple nutsedge): 0; Plant response rating, C. ragweed (common ragweed): 0; Plant response rating, Johnsongrass (Johnson grass): 0; Plant response rating, P. morninglory (pitted morningglory): 0; Sandbur plant response rating (sandbur): 40; Plant response rating, Bermudagrass (bermuda-grass): 100; Plant response rating, Dallisgrass (dallisgrass): 90; Green foxtail plant response rating (Green foxtail): 100
CC(C)N(C(=O)n1oc(=O)n(Cc2cccs2)c1=O)c1ccc(F)cc1 [Compound 80] |  |  |  |  |  |  | 10 | 10 | 0 | 0 | 0 | 0 | 0 | 15 | 20 | 20 | 0 | 0 | 0 | 10 | Plant response rating H. beggarticks (hairy beggarticks; Rate 140 g/ha): 0; Plant response rating, Barnyardgrass (barnyardgrass [2]; Rate 140 g/ha): 0; Plant response rating, Barnyardgrass (barnyardgrass [2]; Rate 280 g/ha): 10; Plant response rating, Barnyardgrass (barnyardgrass [2]; Rate 560 g/ha): 20; Plant response rating, Barnyardgrass (barnyardgrass [2]; Rate 1120 g/ha): 20; Plant response rating I. morningglory (ivyleaf morningglory; Rate 140 g/ha): 0; Plant response rating I. morningglory (ivyleaf morningglory; Rate 280 g/ha): 10; Plant response rating I. morningglory (ivyleaf morningglory; Rate 560 g/ha): 30; Plant response rating I. morningglory (ivyleaf morningglory; Rate 1120 g/ha): 50; Plant response rating Field bindweed (field bindweed; Rate 140 g/ha): 0; Plant response rating Field bindweed (field bindweed; Rate 280 g/ha): 0; Plant response rating Field bindweed (field bindweed; Rate 560 g/ha): 0; Plant response rating Field bindweed (field bindweed; Rate 1120 g/ha): 0
